Experiments:
HIV-1ADA = HIV-1ADA production in mitogen-stimulated peripheral blood leukocytes (FIG. 3); type: cell-based
Description: FIG. 3. The effect of various concentrations of Compound No. 2 on RT activity in the supernatant of HIV-1-infected mitogen-stimulated peripheral blood leukocytes at infected at 10 and 1.0 ng p24/[…], FIGS. 3A and 3B, respectively.
PBMCs were purified by Ficoll-Hypaque centrifugation and activated by 10 μg/ml PHA-P (Sigma) and 20 U/ml recombinant human IL-2 (rhIL-2) in RPMI 1640 supplemented with 10% FBS (HyClone). After 24 h incubation, cells were washed and inoculated with HIV-1ADA in RPMI 1640 supplemented with 10% FBS. After a 2 h adsorption, free virus was washed away and cells were cultured in RPMI 1640 supplemented with 10% FBS and 20 U/ml rhIL-2.
For the reverse transcriptase (RT) assay, 10 μl of culture supernatant was added to 40 μl of reaction mixture (final composition was 50 mM Tris-HCl, pH 7.8; 20 MM KCl; 5 MM MgCl2; 1 mM DTT; 0.1% Triton X-100; 0.2 OD/ml polyA; 0.2 OD/ml oligo(dT)12-18; and 40 μCi/ml ^3H-dTTP (76 Ci/mmol, DuPont) and incubated 2 hr at 37° C. 5 μl of the reaction mixture was then spotted onto the DE 81 (Whatman) paper. Paper was air dried and washed 5 times with 5% Na2HPO4, followed by rinsing with distilled water. After air drying, paper was put on a Flexi Filter plate (Packard), covered with scintillation fluid and counted in a Top Count Microplate Counter (Packard). Results are expressed as counts per minute in 1 ml of supernatant (cpm/ml).

[1] = test system: HIV-1 pre-integration complexes / karyopherin α; assay: Binding of HIV-1 pre-integration complexes to GST-karyopherin α; type: biochemical; settings: for reduction of karyopherin α/HIV-1 binding: lysates of HIV-1RF infected H9 cells treated 2 hours, Phosphorimager
Description: Cytoplasmic lysates of H9 cells infected with HIV-1RF (upper panel) or HIV-like pseudovirions (bottom panel) were treated for 2 hours with various concentrations of CNI-H0294, and were then mixed with GST-karyopherin α immobilized on glutathione Sepharose beads. HIV-1 DNA or RNA that co-precipitated with karyopherin α was quantified as in A and B.
Cytoplasmic lysates prepared from H9 cells infected with HIV-1RF were treated with 10 μM CNI-H3094 (lane 1) or with 1 μM CNI-H0294 and 10 μM (lane 5), 5 μM (lane 4), 1 μM (lane 3), or no CNI-H3094 (lane 2). The amount of pre-integration complexes available for interaction with karyopherin α was quantified as in FIG. 10.
H9 cells were infected with equal amounts of wild-type HIV-1NLHX or with mutant HIV-1NLHX that lack Vpr (Vpr^−) or carry a mutation that inactivates the MA NLS (MA NLS^−). Infected cells were washed and incubated for 4 h. An aliquot of each sample was used to quantify the total HIV-1 DNA (FIG. 14A) and the rest was used to prepare cytoplasmic extracts. Extracts were incubated with 1 μM CNI-H0294 (FIG. 14B, lanes 2, 4, 6, 8) or were left untreated (lanes 1, 3, 5, 7). The amount of pre-integration complexes available for binding to karyopherin α was determined as in FIG. 10.
H9 cells were infected with HIV-1 or HIV-like pseudovirions (Haffar, et al., 1990, J. Virol., 64:2653-2659) at a multiplicity adjusted according to p24 content (50 ng p24 per 10^6 cells) The MA NLS^− virus contains substitutions of isoleucine residues for lysines in positions 26 and 27 of MA in an NLHX backbone (Westervelt., et al., 1992, J. Virol. 66:2577-2582), thus inactivating the NLS. The Vpr^− virus has the initiating ATG of the vpr gene changed to GTG, thus abolishing expression of this gene. The ΔMA NLS pseudovirions have leucine substituting for lysine in position 28 of MA. This mutation abrogates nuclear translocation of HIV-1 gag RNA in growth-arrested H9 cells infected with pseudovirions. After a 1 hour absorption, excess viruses or pseudovirions were washed away, and cells were incubated for an additional 2-3 hour period at 37° C. prior to analysis.
Cytoplasmic extracts were prepared by lysing cells in cold extraction buffer (10 mM KCl, 10 mM Tris-HCl [pH 7.6], 0.5 mM MgCl2, 1 μg/ml each of leupeptin and aprotinin, and 1 MM phenylmethylsulfonyl fluoride [PMSF]) by 20-30 strokes of a Dounce homogenizer under the control of phase-contrast microscopy. After removal of nuclei, cytoplasmic extract was cleared by centrifugation at 15,000 g for 10 min.
Cytoplasmic extracts prepared from HIV-1-or pseudovirion-infected H9 cells were adjusted to 0.14 M NaCl, 0.1% Tween 20 and precleared with glutathione-Sepharose beads for 30 min. at room temperature. Karyopherin α was expressed as a fusion protein with glutathione S-transferase (GST) which can bind glutathione beads in solution. GST-karyopherin α immobilized on Sepharose beads was then added (about 50 μg of immobilized karyopherin α per extract from 108 infected cells) and the mixture was incubated at room temperature for another 30 min. Beads were then pelleted by centrifugation and washed 3 times with PBS supplemented with 0.1% Tween 20, 1 μg/ml each of leupeptin and aprotinin, and 1 mM PMSF. HIV-1 DNA was isolated from the beads by SDS-proteinase K treatment with subsequent phenol-chloroform extraction, while pseudovirion gag RNA was isolated by RNazol (Biotecx Laboratories Inc.).

Plasmodium berghei NYU-2 = assay: Four day suppression test in Plasmodium berghei infected mice; type: in vivo; settings: 50 mg/kg i.p. once daily for four days, P≦0.01
Description: FIG. 9. The activity of CNI-0294 against Plasmodium berghei infected mice. Female ND4 Swiss Webster mice were infected with infected erythrocytes and then treated once daily, for four days, with 50 mg/kg CNI-0294, or with distilled water. Six hours after the last dose, thin blood smears were made from each of the animals and the parasitemia was determined. The bars represent the median parasitemia (n=4 for controls and n=5 for treated).
The antimalarial activity of CNI-0294 in vivo was assessed by infecting female ND4 Swiss Webster mice with 100 μl of Plasmodium berghei NYU-2 infected mouse erythrocytes (50% parasitemia) by intraperitoneal injection. The animals were subsequently injected intraperitoneally once per day on days 1-4 of the infection with 0.5 ml water or 0.5 ml of 50 mg/kg CNI-0294 in water. Four hours after the final injection, small blood samples were taken from the tail, and thin smears stained with Dif-Quick (Baxter, Miami, Fla.). The parasitemia of control and treated animals was enumerated by inspection of at least 1000 erythrocytes in each animal.

Structure (SMILES) | reduction in viral output (HIV-1ADA; 1 and 10 μM, lower MOI, 1 ng p24/10^6 cells) [fold] | anti-viral effect in cultures of replicating cells (HIV-1ADA; infected at the multiplicity of infection used to infect monocytes) | effect on viral production (HIV-1ADA; up to 10 μM, higher MOI, 10 ng p24/10^6 cells) | reduction of karyopherin α/HIV-1 binding ([1]; 0.1 μM) [fold] | effect on binding of karyopherin α to complexes ([1]; 1 μM, MA NLS^− complexes) | diminished binding of karyopherin α to complexes ([1]; 1 μM, Vpr^− complexes) [%] | reduction of karyopherin α/HIV-1 binding ([1]; 1 μM) [fold] | diminished binding of karyopherin α to complexes ([1]; 1 μM, wild-type (wt) HIV-1NLHX complexes) [%] | interaction of pre-integration complexes with karyopherin α ([1]; 10 μM (FIG. 13A)) | lowering of parasitemia (Plasmodium berghei NYU-2) [fold]
CC(=O)c1cc(Nc2cc(C)[n+](C)c(N)n2)cc(C(C)=O)c1.[I-] [Compound No. 2, 2-amino-4-(3,5-diacetylphenyl)amino-1,6-dimethylpyrimidinium iodide] | ~2 | No anti-viral effect was detected | only a marginal effect |  |  |  |  |  |  | 
CC(=O)c1cc(Nc2cc(C)[n+](C)c(N)n2)cc(C(C)=O)c1 [CNI-0294, 2-Amino-4-(3,5-diacetylphenyl)amino-1,6-dimethylpyrimidinium chloride] |  |  |  | 8 | had no effect | 95 | 25 | 95 | blocked the interaction | 10

From patent US6649797B2, “Compounds and methods of use to treat infectious diseases” (The Picower Institute for Medical Research, priority 1996, dated 2003)
